Measured values published in patent US10040798B2, “Pyrrolopyridazine inhibitors of IRAK4 activity” (MERCK SHARP & DOHME CORP., priority 2015, dated 2018).
Where a name gives a salt, the structure may show the parent alone.

Molecular target: IRAK4 (Homo sapiens (Human), UniProt Q9NWZ3)
Experiment: IRAK4 Kinase Assay (IMAP fluorescence polarization)
Type: biochemical
Conditions: 0.5 nM GST tagged IRAK4, 100 μM ATP, 30 minutes at 25° C., IMAP FP
Method in brief: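 GST-tagged IRAK4 (0.5 nM) phosphorylated 100 nM fluorescent peptide RP7030 with 100 μM ATP in 10 mM Tris-HCl pH 7.2, MgCl2, DTT and Tween 20 for 30 min at 25 °C. Phosphorylation was read as the increase in fluorescence polarization after binding to IMAP nanoparticles.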

IRAK4, sequence (Q9NWZ3 whole entry): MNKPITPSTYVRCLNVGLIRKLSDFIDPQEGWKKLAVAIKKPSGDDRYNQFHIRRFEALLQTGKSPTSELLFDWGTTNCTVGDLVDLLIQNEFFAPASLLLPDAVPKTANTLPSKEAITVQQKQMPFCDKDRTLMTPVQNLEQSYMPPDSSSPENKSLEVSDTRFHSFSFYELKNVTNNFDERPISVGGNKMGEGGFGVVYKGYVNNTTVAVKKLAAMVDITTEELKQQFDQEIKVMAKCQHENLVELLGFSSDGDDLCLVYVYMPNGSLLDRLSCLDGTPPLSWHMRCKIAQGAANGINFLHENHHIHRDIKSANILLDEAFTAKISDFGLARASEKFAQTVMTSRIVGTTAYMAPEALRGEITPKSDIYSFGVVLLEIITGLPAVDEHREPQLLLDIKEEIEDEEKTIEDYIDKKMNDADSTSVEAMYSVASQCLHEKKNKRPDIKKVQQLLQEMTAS

| Structure (SMILES) | IC50 [nM] |
| --- | --- |
| N#Cc1ccccc1NC(=O)c1ccc2ccc(N3CCNCC3)nn12 [Example 101, N-(2-cyanophenyl)-2-piperazin-1-ylpyrrolo[1,2-b]pyridazine-7-carboxamide trifluoroacetate] | 574 |
| N#Cc1ccccc1NC(=O)c1ccc2ccc(N3CC4CCC3CN4)nn12 (stereo not drawn) [Example 102, N-(2-cyanophenyl)-2-(2,5-diazabicyclo[2.2.2]oct-2-yl)pyrrolo[1,2-b]pyridazine-7-carboxamide trifluoroacetate] | 461 |
| N#Cc1ccccc1NC(=O)c1ccc2ccc(N3CCNCC4(CC4)C3)nn12 [Example 103, N-(2-cyanophenyl)-2-(5,8-diazaspiro[2.6]non-5-yl)pyrrolo[1,2-b]pyridazine-7-carboxamide trifluoroacetate] | 766 |
| N#Cc1ccccc1NC(=O)c1ccc2ccc(N[C@@H]3CCCC[C@@H]3O)nn12 [Example 104, N-(2-cyanophenyl)-2-{[(1R,2S)-2-hydroxycyclohexyl]amino}pyrrolo[1,2-b]pyridazine-7-carboxamide trifluoroacetate] | 1860 |
| N#Cc1ccccc1NC(=O)c1ccc2ccc(N[C@@H]3CCCNC3)nn12 [Example 105, N-(2-cyanophenyl)-2-[(3R)-piperidin-3-ylamino]pyrrolo[1,2-b]pyridazine-7-carboxamide trifluoroacetate] | 6 |
| N#Cc1ccccc1NC(=O)c1ccc2ccc(N[C@@H]3CCCC[C@@H]3N)nn12 [Example 106, 2-{[(1R,2S)-2-aminocyclohexyl]amino}-N-(2-cyanophenyl)pyrrolo [1,2-b]pyridazine-7-carboxamide trifluoroacetate] | 6 |
| N#Cc1ccccc1NC(=O)c1ccc2ccc(N3CCC[C@@H](N)C3)nn12 [Example 107, 2-[(3R)-3-aminopiperidin-1-yl]-N-(2-cyanophenyl) pyrrolo[1,2-b]pyridazine-7-carboxamide trifluoroacetate] | 26 |
| N#Cc1ccccc1NC(=O)c1ccc2ccc(N[C@@H]3CCCC(F)(F)[C@@H]3N)nn12 [Example 110, 2-{[(1R,2R)-2-amino-3,3-difluorocyclohexyl]amino}-N-(2-cyanophenyl)pyrrolo [1,2-b]pyridazine-7-carboxamide trifluoroacetate] | 825 |
| O=C(Nc1ccccc1C(F)(F)F)c1ccc2ccc(N3CCCNCC3)nn12 [Example 111, 2-(1,4-Diazepan-1-yl)-N-(2-(trifluoromethyl)phenyl)pyrrolo[1,2-b]pyridazine-7-carboxamide] | 1420 |
| N[C@H]1CCCC[C@H]1Nc1ccc2ccc(C(=O)Nc3ccccc3C(F)F)n2n1 [Example 112, 2-{[(1R,2S)-2-aminocyclohexyl]amino}-N-[2-(difluoromethyl)phenyl]pyrrolo[1,2-b]pyridazine-7-carboxamide trifluoroacetate] | 472 |
| O=C(Nc1ccsc1C(F)(F)F)c1ccc2ccc(N3CCCNCC3)nn12 [Example 115, 2-(1,4-diazepan-1-yl)-N-[2-(trifluoromethyl)thiophen-3-yl]pyrrolo[1,2-b]pyridazine-7-carboxamide trifluoroacetate] | 2020 |
| N[C@H]1CCCC[C@H]1Nc1ccc2ccc(C(=O)Nc3ccsc3C(F)(F)F)n2n1 [Example 116, 2-{[1R,2S)-2-aminocyclohexyl] amino}-N-[2-(trifluoromethyl) thiophen-3-yl] pyrrolo[1,2-b]pyridazine-7-carboxamide trifluoroacetate] | 221 |
| N[C@@H]1[C@H](Nc2ccc3ccc(C(=O)Nc4ccsc4C(F)(F)F)n3n2)CCCC1(F)F [Example 117, 2-{[(1R,2R)-2-amino-3,3-difluorocyclohexyyl]amino}-N-[2-(trifluoromethyl)thiophen-3-yl]pyrrolo[1,2-b]pyridazine-7-carboxamide trifluoroacetate] | 2980 |
| N[C@@H]1[C@H](Nc2ccc3ccc(C(=O)Nc4ccccc4C(F)F)n3n2)CCCC1(F)F [Example 118, 2-{[(1R,2R)-2-amino-3,3-difluorocyclohexyl]amino}-N-[2-(difluoromethyl)phenyl]pyrrolo[1,2-b]pyridazine-7-carboxamide trifluoroacetate] | 7390 |
| Cn1cc(NC(=O)c2ccc3ccc(N4C5CCC4CNC5)nn23)c(C(F)F)n1 [Example 119, 2-(3,8-Diazabicyclo[3.2.1]octan-8-yl)-N-(3-(difluoromethyl)-1-methyl-1H-pyrazol-4-yl)pyrrolo[1,2-b]pyridazine-7-carboxamide] | 0.5 |
| Cn1cc(NC(=O)c2ccc3ccc(N4C5CCC4CNC5)nn23)c(C(F)(F)F)n1 [Example 120, 2-(3,8-diazabicyclo[3.2.1]oct-8-yl)-N-[1-methyl-3-(trifluoromethyl)-1H-pyrazol-4-yl]pyrrolo[1,2-b]pyridazine-7-carboxamide trifluoroacetate] | 2 |
| Cn1cc(NC(=O)c2ccc3ccc(N4C[C@@H]5CNC[C@H]4C5)nn23)c(C(F)(F)F)n1 [Example 122, 2-[(1S,5R)-(1R,5S)-3,6-diazabicyclo[3.2.1]oct-6-yl]-N-[1-methyl-3-(trifluoromethyl)-1H-pyrazol-4-yl]pyrrolo[1,2-b]pyridazine-7-carboxamide] | 39 |
| Cn1cc(NC(=O)c2ccc3ccc(N4C[C@H]5CNC[C@@H]4C5)nn23)c(C(F)(F)F)n1 [Example 123, 2-[(1S,5R)-(1R,5S)-3,6-diazabicyclo[3.2.1]oct-6-yl]-N-[1-methyl-3-(trifluoromethyl)-1H-pyrazol-4-yl]pyrrolo[1,2-b]pyridazine-7-carboxamide] | 114 |
